Assay results from patent publication US20040235799A1, “Use of a compound with a negatively charged domain of radicals for the treatment of restenosis” (priority 2001, published 2004).

Tested on: Wistar rats
Assay: Neointima formation after balloon catheter vessel injury of the carotid artery in rats
Assay type: in vivo
Method: The effects on neointima formation was assessed after inducing vessel injury in rats with a balloon catheter. Neointima formation is an important part in the process of restenosis. Adult mate Wistar rats (250-260 g) were housed under standard conditions and were fed with commercial rat chow and water ad libitum. During the experiment D-myo-inositol-1,2,6-trisphosphate (IP3) was administered via subcutaneously operated osmotic minipumps with a dose level of 1 mg/kg/hr. A control group received saline solution by osmotic minipumps. The animals were anaesthetised with an intraperitoneal injection of ketamine, 100 mg/kg, (MTC Pharmaceuticals, Cambridge, Ontario, Canada) and xylazine, 10 mg/kg (Bayer lnc., Etobicoke, Ontario, Canada). Using a dissecting microscope, the left carotid artery was exposed on the ventral side of the neck via a midline incision. The bifurcation of the carotid artery was located and two ligatures were placed around the external carotid artery, which was then tied off with the distal ligature. After temporarily occluding the internal carotid artery with a vascular clamp, a small incision was made between the two ligatures placed around the external carotid artery to introduce the endothelial denudation device, an inflated […] Fogarty embolectomy catheter (Baxter Healthcare, Buckinghamshire, UK). […]

Structure (SMILES)	Reduction of neointima formation (vs saline control, 1 mg/kg/hr via subcutaneous osmotic minipumps, 14 days post-operatively) [%]	Reduction of neointima formation (vs control, procedure similar to Example 3) [%]
O=P(O)(O)O[C@@H]1[C@H](OP(=O)(O)O)[C@H](O)[C@@H](O)[C@H](O)[C@H]1OP(=O)(O)O [IP3, D-myo-inositol-1,2,6-trisphosphate]	57	
O=C(Nc1ccccc1)O[C@@H]1[C@@H](OC(=O)Nc2ccccc2)[C@@H](OP(=O)(O)O)[C@@H](OP(=O)(O)O)[C@H](OP(=O)(O)O)[C@H]1OC(=O)Nc1ccccc1 [PP 11-201, D-3,4,5-tri-O-(phenylcarbamoyl) myo-inositol-1,2,6-trisphosphate]		62
